Data on seven compounds can be found in ChEMBL document CHEMBL3091388, “New cytotoxic benzosuberene analogs. Synthesis, molecular modeling and biological evaluation” (Bioorg Med Chem Lett, 2013).

Structures are written as SMILES. Some results are limits rather than exact numbers.

Chain of CYP2C9 (P11712 whole entry): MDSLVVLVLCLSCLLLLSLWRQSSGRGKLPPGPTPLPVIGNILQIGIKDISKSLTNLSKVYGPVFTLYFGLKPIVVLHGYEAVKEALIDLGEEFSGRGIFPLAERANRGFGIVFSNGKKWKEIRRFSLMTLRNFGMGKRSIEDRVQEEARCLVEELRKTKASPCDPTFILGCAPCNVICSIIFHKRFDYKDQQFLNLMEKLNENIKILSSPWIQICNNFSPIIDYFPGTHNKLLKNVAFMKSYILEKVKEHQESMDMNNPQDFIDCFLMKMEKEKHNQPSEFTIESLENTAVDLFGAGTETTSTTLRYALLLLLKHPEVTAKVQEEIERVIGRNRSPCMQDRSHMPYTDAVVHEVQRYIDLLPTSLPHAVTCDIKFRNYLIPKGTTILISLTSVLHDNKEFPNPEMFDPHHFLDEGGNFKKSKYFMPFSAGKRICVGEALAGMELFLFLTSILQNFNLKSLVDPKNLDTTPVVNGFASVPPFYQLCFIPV

The first series concerns BT-474. Put plainly: Cytotoxicity against human BT474 cells assessed as cell viability after 4 days by MTS assay. It is filed as functional, cell-based. The note with it: BT-474, 96 h. (Tetrazolium assays rely on reduction of a dye to a coloured formazan, in cell work by metabolically active cells.)
What is called IC50 is the concentration needed to halve the response being measured. For the compound `COc1ccc2c(c1O)CCCC(CCC(N)=O)=C2c1cc(OC)c(OC)c(OC)c1`, the IC50 was above 1000 nM.
Consider `COc1ccc2c(c1O)CCCC(CCN(C)C)=C2c1cc(OC)c(OC)c(OC)c1`, for which the IC50 was above 1000 nM.
In the case of `COc1ccc2c(c1O)CCCC(CCO)=C2c1cc(OC)c(OC)c(OC)c1`, the IC50 amounted to 217 nM.
Same read-out and setting: the same measure for `COc1ccc2c(c1O)CCCC(Cc1ccccc1)=C2c1cc(OC)c(OC)c(OC)c1`: above 1000 nM; for `COc1ccc2c(c1O)CCCC=C2c1cc(OC)c(OC)c(OC)c1`: 2.9 nM; for `COc1ccc2c(c1O)C[C@@H]1C=C[C@@]2(c2cc(OC)c(OC)c(OC)c2)O1` (racemic): 10.9 nM.
In the case of `COc1ccc(/C=C\c2cc(OC)c(OC)c(OC)c2)cc1O` [COMBRETASTATIN A4], the IC50 came out at 3.9 nM.

The next series addresses CYP2C9 (Homo sapiens, UniProt P11712). Description: Inhibition of CYP2C9 (unknown origin) at 3 uM. The format is ADME.
Settings: not given
One may read the inhibition as the drop in the measured response relative to a control, in per cent. Low readings indicate a weak effect, high ones a strong effect. Take `COc1ccc2c(c1O)CCCC(Cc1ccccc1)=C2c1cc(OC)c(OC)c(OC)c1`: the inhibition at 3 µM turned out to be 55.3%.
Regarding `COc1ccc2c(c1O)CCCC=C2c1cc(OC)c(OC)c(OC)c1`, testing at 3 µM gave an inhibition of 89.7%.

For the next series, the target named is CYP2D6 (Homo sapiens, UniProt P10635). Description: Inhibition of CYP2D6 (unknown origin) at 3 uM. It is filed as ADME.
Chain of CYP2D6 (P10635 whole entry): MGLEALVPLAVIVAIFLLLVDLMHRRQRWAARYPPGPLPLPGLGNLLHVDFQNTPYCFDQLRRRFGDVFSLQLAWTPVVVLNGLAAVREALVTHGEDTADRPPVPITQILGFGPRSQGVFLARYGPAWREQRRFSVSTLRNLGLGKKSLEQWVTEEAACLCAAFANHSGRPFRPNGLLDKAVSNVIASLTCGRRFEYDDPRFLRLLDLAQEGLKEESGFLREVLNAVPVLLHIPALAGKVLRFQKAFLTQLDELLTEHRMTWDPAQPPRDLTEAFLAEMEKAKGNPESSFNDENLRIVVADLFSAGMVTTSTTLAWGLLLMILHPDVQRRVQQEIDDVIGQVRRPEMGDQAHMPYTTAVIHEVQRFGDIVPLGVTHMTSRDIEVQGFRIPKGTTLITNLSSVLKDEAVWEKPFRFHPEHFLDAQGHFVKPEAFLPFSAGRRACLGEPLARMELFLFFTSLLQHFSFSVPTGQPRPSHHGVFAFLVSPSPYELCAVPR
Settings: not given
For the compound `COc1ccc2c(c1O)CCCC(Cc1ccccc1)=C2c1cc(OC)c(OC)c(OC)c1`, the inhibition at 3 µM came out at 26.2%.
In turn, `COc1ccc2c(c1O)CCCC=C2c1cc(OC)c(OC)c(OC)c1` registered an inhibition at 3 µM of 6.2%.

A further series relates to MDA-MB-468. Description: Cytotoxicity against human MDA-MB-468 cells assessed as cell viability after 4 days by MTS assay. The format is functional, cell-based. To be noted: MDA-MB-468, 96 h.
As for `COc1ccc2c(c1O)CCCC(CCC(N)=O)=C2c1cc(OC)c(OC)c(OC)c1`, the IC50 was above 1000 nM.
As to `COc1ccc2c(c1O)CCCC(CCN(C)C)=C2c1cc(OC)c(OC)c(OC)c1`, the IC50 was above 1000 nM.
Still for that read-out and setting: the figure for `COc1ccc2c(c1O)CCCC(CCO)=C2c1cc(OC)c(OC)c(OC)c1` is 115 nM.
With `COc1ccc2c(c1O)CCCC(Cc1ccccc1)=C2c1cc(OC)c(OC)c(OC)c1`, the IC50 is above 1000 nM.
Regarding `COc1ccc2c(c1O)CCCC=C2c1cc(OC)c(OC)c(OC)c1`, the IC50 worked out at 1.5 nM.
As to `COc1ccc2c(c1O)C[C@@H]1C=C[C@@]2(c2cc(OC)c(OC)c(OC)c2)O1` (racemic), the IC50 turned out to be 8.9 nM.
As for `COc1ccc(/C=C\c2cc(OC)c(OC)c(OC)c2)cc1O` [COMBRETASTATIN A4], the IC50 is 1.1 nM.

The subject of a further series is NCI-N87. Put plainly: Cytotoxicity against human NCI-N87 cells assessed as cell viability after 4 days by MTS assay. It is filed as functional, cell-based. The note with it: NCI-N87, 96 h.
Take `COc1ccc2c(c1O)CCCC(CCC(N)=O)=C2c1cc(OC)c(OC)c(OC)c1`: the IC50 was above 1000 nM.
Regarding `COc1ccc2c(c1O)CCCC(CCN(C)C)=C2c1cc(OC)c(OC)c(OC)c1`, the IC50 was above 1000 nM.
Consider `COc1ccc2c(c1O)CCCC(CCO)=C2c1cc(OC)c(OC)c(OC)c1`, for which the IC50 worked out at 200 nM.
Turning to `COc1ccc2c(c1O)CCCC(Cc1ccccc1)=C2c1cc(OC)c(OC)c(OC)c1`, the IC50 was above 1000 nM.
Consider `COc1ccc2c(c1O)CCCC=C2c1cc(OC)c(OC)c(OC)c1`, for which the IC50 stood at 3.8 nM.
The same measure, in the same setting: the same measure for `COc1ccc2c(c1O)C[C@@H]1C=C[C@@]2(c2cc(OC)c(OC)c(OC)c2)O1` (racemic): 15.6 nM; for `COc1ccc(/C=C\c2cc(OC)c(OC)c(OC)c2)cc1O` [COMBRETASTATIN A4]: 2.5 nM.

Another series concerns the target T1, CYP2C8 (Homo sapiens, UniProt P10632).
T1 sequence (P10632 whole entry): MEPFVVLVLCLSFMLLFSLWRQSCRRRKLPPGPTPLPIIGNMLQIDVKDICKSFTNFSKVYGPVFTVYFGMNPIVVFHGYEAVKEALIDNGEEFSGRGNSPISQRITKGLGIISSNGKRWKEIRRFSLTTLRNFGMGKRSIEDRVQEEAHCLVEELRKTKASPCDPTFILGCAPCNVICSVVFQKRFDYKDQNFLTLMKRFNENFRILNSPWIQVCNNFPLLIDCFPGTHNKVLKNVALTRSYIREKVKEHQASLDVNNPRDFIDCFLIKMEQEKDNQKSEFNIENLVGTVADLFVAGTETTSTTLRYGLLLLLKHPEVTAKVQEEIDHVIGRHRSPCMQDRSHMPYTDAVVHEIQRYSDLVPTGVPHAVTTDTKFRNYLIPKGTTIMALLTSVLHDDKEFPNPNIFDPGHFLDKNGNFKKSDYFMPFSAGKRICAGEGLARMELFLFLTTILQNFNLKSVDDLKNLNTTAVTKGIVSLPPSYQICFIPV
Put plainly: Inhibition of CYP2C8 (unknown origin) at 3 uM. The format is ADME.
Settings: not given
`COc1ccc2c(c1O)CCCC(Cc1ccccc1)=C2c1cc(OC)c(OC)c(OC)c1` gave an inhibition at 3 µM of 83.5%.
For `COc1ccc2c(c1O)CCCC=C2c1cc(OC)c(OC)c(OC)c1`, testing at 3 µM gave an inhibition of 77.6%.

In another series the target is CYP3A4 (Homo sapiens, UniProt P08684). Put plainly: Inhibition of CYP3A4 (unknown origin) at 3 uM. The format is ADME.
Chain of CYP3A4 (P08684 whole entry): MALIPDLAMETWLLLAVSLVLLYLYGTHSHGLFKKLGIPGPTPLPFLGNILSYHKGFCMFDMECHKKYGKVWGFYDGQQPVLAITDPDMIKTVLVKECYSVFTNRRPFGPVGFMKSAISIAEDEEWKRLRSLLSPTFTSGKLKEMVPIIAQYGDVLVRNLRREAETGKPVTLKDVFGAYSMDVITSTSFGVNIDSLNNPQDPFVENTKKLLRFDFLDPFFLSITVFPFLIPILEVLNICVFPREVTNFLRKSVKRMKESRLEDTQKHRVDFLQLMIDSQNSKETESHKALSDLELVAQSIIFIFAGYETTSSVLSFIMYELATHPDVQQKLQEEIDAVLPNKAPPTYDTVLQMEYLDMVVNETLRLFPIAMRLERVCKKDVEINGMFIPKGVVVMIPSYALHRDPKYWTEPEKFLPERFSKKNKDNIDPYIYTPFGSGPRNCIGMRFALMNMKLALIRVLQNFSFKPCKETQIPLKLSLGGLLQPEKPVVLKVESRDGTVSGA
Settings: not given
In the case of `COc1ccc2c(c1O)CCCC(Cc1ccccc1)=C2c1cc(OC)c(OC)c(OC)c1`, 3 µM produced 33.9% inhibition.
Still for that read-out and setting: the figure for `COc1ccc2c(c1O)CCCC=C2c1cc(OC)c(OC)c(OC)c1` is 16.1%.

The test system of the next series is HUVEC. Description: Cytotoxicity against HUVEC assessed as cell viability after 4 days by MTS assay. The format is cell-based. The note with it: Homo sapiens, 96 h.
For `COc1ccc2c(c1O)CCCC(CCC(N)=O)=C2c1cc(OC)c(OC)c(OC)c1`, the IC50 is 472 nM.
Take `COc1ccc2c(c1O)CCCC(CCN(C)C)=C2c1cc(OC)c(OC)c(OC)c1`: the IC50 worked out at 251 nM.
On to `COc1ccc2c(c1O)CCCC(CCO)=C2c1cc(OC)c(OC)c(OC)c1`, for which the IC50 turned out to be 155 nM.
Same read-out and setting: the same measure for `COc1ccc2c(c1O)CCCC(Cc1ccccc1)=C2c1cc(OC)c(OC)c(OC)c1`: 961 nM; for `COc1ccc2c(c1O)CCCC=C2c1cc(OC)c(OC)c(OC)c1`: 4.6 nM.
With `COc1ccc2c(c1O)C[C@@H]1C=C[C@@]2(c2cc(OC)c(OC)c(OC)c2)O1` (racemic), the IC50 worked out at 16 nM.
Still for that read-out and setting: the same measure for `COc1ccc(/C=C\c2cc(OC)c(OC)c(OC)c2)cc1O` [COMBRETASTATIN A4]: 2.5 nM.

System in a further series: not listed separately
Put plainly: Apparent intrinsic clearance in human liver microsomes at 1 uM. To be noted: read-out: CLH(app). The format is ADME. (Liver microsomes are a subcellular fraction often used to study metabolism.)
Take `COc1ccc2c(c1O)CCCC(Cc1ccccc1)=C2c1cc(OC)c(OC)c(OC)c1`: the microsomal CLint at 1 µM was 51.2 µL/min/mg.
Turning to `COc1ccc2c(c1O)CCCC=C2c1cc(OC)c(OC)c(OC)c1`, the microsomal CLint at 1 µM worked out at 54.1 µL/min/mg.

In a further series the target is T2, CYP1A2 (Homo sapiens, UniProt P05177).
T2 sequence (P05177 whole entry): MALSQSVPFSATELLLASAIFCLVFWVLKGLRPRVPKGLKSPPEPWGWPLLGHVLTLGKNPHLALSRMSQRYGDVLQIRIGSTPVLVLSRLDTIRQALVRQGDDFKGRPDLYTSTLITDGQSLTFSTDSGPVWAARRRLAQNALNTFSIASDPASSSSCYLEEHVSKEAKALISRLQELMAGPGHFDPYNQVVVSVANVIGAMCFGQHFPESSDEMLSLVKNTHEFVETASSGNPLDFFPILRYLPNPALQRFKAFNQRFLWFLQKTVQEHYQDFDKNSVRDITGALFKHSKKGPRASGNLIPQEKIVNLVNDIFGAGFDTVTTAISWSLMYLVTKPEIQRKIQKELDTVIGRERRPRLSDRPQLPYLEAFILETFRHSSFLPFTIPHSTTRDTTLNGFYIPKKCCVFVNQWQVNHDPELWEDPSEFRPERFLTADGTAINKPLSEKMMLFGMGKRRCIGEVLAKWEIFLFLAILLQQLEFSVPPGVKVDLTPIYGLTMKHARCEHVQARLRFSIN
Put plainly: Inhibition of CYP1A2 (unknown origin) at 3 uM. The format is ADME.
Settings: not given
For `COc1ccc2c(c1O)CCCC(Cc1ccccc1)=C2c1cc(OC)c(OC)c(OC)c1`, at 3 µM the inhibition was 18.4%.
As for `COc1ccc2c(c1O)CCCC=C2c1cc(OC)c(OC)c(OC)c1`, the inhibition at 3 µM was 19%.
